Results reported in article PMC3038857, “Using Nuclear Receptor Activity to Stratify Hepatocarcinogens” (PLoS ONE, 2011).
Read-outs that look alike come from different tables or passages of the source.

What was measured:
Mouse Liver [1] = settings: mouse chronic study, liver; coded 6 / Inf, code not explained in table; ref ToxRefDB; cited from earlier work
Rat Liver [2] = settings: ref ToxRefDB, cited from earlier work
Rat Liver [3] = settings: ref ToxRefDB, cited from earlier work; remark: listed apart in the source
Mouse Liver [4] = settings: ref ToxRefDB, cited from earlier work
Rat Liver [5] = settings: ref ToxRefDB, cited from earlier work; remark: listed apart in the source
Mouse Liver [6] = settings: mouse chronic study, liver; coded 6 / Inf, code not explained in table; ref ToxRefDB; cited from earlier work; remark: listed apart in the source
PXR (NR1I2) [7] = molecular target: T1, PXR (NR1I2) (Homo sapiens, UniProt O75469); assay: ATG_PXRE_CIS: Factorial reporter gene assay (HepG2); format: cell-based; set-up: endogenous in cells; host or cells: HepG2
T1 sequence (O75469 1-434): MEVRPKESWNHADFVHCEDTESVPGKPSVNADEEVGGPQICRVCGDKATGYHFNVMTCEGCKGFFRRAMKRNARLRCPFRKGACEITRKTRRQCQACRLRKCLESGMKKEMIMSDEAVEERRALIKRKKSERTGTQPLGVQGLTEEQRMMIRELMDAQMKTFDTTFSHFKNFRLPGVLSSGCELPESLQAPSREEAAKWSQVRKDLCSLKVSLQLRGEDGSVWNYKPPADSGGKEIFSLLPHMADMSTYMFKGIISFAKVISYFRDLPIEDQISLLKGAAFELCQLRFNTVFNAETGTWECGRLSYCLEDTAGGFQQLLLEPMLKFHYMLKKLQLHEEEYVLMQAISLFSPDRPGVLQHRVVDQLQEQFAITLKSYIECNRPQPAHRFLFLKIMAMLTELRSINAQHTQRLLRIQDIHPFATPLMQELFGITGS
Experimental: (§1) A multiple reporter transcription unit (MRTU) library consisting of 48 transcription factor binding sites was transfected into the HepG2 human liver hepatoma cell line. In addition to the cis-acting reporter genes (CIS), a modification of the approach was used to generate a trans-system (TRANS) with a mammalian one-hybrid assay consisting of an additional 25 MRTU library reporting the activity of nuclear receptor super-family members. […] These assays were performed by Attagene Inc. (Morrisville NC) under contract to EPA.
(§2) In addition to the cis-acting reporter genes (CIS), a modification of the approach was used to generate a trans-system (TRANS) with a mammalian one-hybrid assay consisting of an additional 25 MRTU library reporting the activity of nuclear receptor super-family members. […] Chemicals were then tested in the CIS and TRANS assays at seven concentrations starting at the MTC and followed by three-fold serial dilutions. These assays were performed by Attagene Inc. (Morrisville NC) under contract to EPA. Detailed description of the methods, data and analysis methods for this dataset will be presented in a separate publication.

CYP2B6 = assay: CLZD_CYP2B6: Change in expression of CYP2B6 (primary human hepatocytes); format: cell-based; settings: 24 hr
Experimental: (§3) This is a collection of multiplexed gene expression assays focused on Phase I and II xenobiotic metabolizing enzymes and transporters. Human primary cell cultures were treated with chemicals at 5 concentrations (0.004-40 [drawing 42] M) for 6, 24 and 48 hr. Concentration- and time-response profiles of chemicals were measured by the expression of key nuclear receptor target genes, activities of CYP1A enzymes (EROD), and cell morphology. Fourteen gene targets were monitored by quantitative nuclease protection assay including: six representative cytochrome P-450 genes, four hepatic transporters, three Phase II conjugating enzymes, and one endogenous metabolism gene involved in cholesterol synthesis. The target genes associated with nuclear receptor pathways are as follows: [drawing 43] and [drawing 44] with [drawing 45]; [drawing 46] , [drawing 47] , [drawing 48] , [drawing 49] , [drawing 50] and [drawing 51] with [drawing 52]; [drawing 53] , [drawing 54] , [drawing 55] and [drawing 56] with [drawing 57]; [drawing 58] with [drawing 59]; and [drawing 60] with [drawing 61] . Assays were run in primary human hepatocyte cultures by CellzDirect Invitrogen Inc. (Durham, NC), in collaboration with EPA.
(§4) Multiplexed Gene Expression in Human Primary Hepatocytes: This is a collection of multiplexed gene expression assays focused on Phase I and II metabolic enzymes and transporters. […] Fourteen gene targets were monitored by quantitative nuclease protection assay: six representative cytochrome P450 genes, four hepatic transporters, three Phase II conjugating enzymes, and one endogenous metabolism gene involved in cholesterol synthesis. Cells were exposed at 5 concentrations (0.004-40 µM) for 6, 24 or 48 hr. Gene targets are sentinels for five nuclear receptor signaling pathways: AhR, CAR, PXR, FXR, and PPARα. All gene are associated with nuclear receptor pathways: CYP1A1 and CYP1A2 with AHR; ABCB1, ABCG2, CYP2B6, CYP2C9, CYP2C19 and UGT1A1 with CAR; CYP3A4, GSTA2, SLCO1B1 and SULT2A1 with PXR; HMGCS2 with PPARA; and ABCB11 with FXR. […] Detailed description of the methods, data and analysis methods for this dataset will be presented in a separate publication.

CYP1A1 = assay: CLZD_CYP1A1: Change in expression of CYP1A1 (primary human hepatocytes); format: cell-based; settings: 24 hr
Experimental: as §3, §4

[8] = molecular target: T2, PPARG (peroxisome proliferator-activated receptor gamma) (Homo sapiens, UniProt P37231); assay: ATG_PPARg_TRANS: Factorial reporter gene assay (HepG2); format: cell-based
T2 construct: expressed in transfected cells; host or cells: HepG2
T2 sequence (P37231 1-505): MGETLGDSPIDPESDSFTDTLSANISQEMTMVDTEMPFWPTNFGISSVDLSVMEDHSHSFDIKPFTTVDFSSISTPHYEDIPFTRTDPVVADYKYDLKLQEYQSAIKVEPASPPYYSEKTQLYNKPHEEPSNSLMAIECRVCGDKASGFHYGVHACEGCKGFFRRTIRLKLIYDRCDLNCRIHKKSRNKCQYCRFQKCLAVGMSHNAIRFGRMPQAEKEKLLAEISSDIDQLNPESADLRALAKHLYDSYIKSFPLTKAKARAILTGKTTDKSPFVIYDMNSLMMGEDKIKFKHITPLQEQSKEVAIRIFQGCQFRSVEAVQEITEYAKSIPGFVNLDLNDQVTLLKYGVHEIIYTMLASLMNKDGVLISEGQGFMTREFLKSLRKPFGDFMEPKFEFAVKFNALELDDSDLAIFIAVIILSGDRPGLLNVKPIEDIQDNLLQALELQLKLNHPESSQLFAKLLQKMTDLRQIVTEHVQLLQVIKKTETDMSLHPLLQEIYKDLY
Experimental: as §1, §2

PXR (NR1I2) [9] = molecular target: T1, PXR (NR1I2); assay: ATG_PXR_TRANS: Factorial reporter gene assay (HepG2); format: cell-based; set-up: endogenous in cells; host or cells: HepG2; settings: HepG2
Experimental: as §1, §2

PXR (NR1I2) [10] = molecular target: T1, PXR (NR1I2); assay: NVS_NR_hPXR: Human PXR Fluormone PXR (SXR) green (cell-free HTS); format: binding
Description: These are a collection of biochemical assays measuring binding constants and enzyme inhibition values. Chemicals were initially screened at a single concentration in duplicate wells at a concentration of 10 [drawing 63] M for cytochrome P-450 assays and 25 [drawing 64] M for all others. […] These assays were run by Caliper Life Sciences (Hanover, MD) under contract to EPA. Short assay descriptions are available at: http://www.caliperls.com/products/contract-research/in-vitro/.
Cell-free HTS Assays: A collection of biochemical assays measuring binding constants and enzyme inhibition values. […] These assays were run by Caliper Life Sciences (Hanover, MD) under contract to EPA. Short assay descriptions are available at http://www.caliperls.com/products/contract-research/in-vitro/. Values for all endpoints were imported into GeneData Screener (Basel, Switzerland) and normalised to solvent controls from the same plate as the tested compounds and expressed as percent of neutral control. Concentration-response curves were fit in GeneData Screener (Basel, Switzerland) Condeseo module using the Hill equation and AC50 values were determined. […] Detailed description of the methods, data and analysis methods for this dataset are described in a separate publication.

CYP1A2 = assay: CLZD_CYP1A2: Change in expression of CYP1A2 (primary human hepatocytes); format: cell-based; settings: 24 hr
Experimental: as §3, §4

CYP3A4 = assay: CLZD_CYP3A4: Change in expression of CYP3A4 (primary human hepatocytes); format: cell-based; settings: 24 hr
Experimental: as §3, §4

[11] = rat chronic study, liver, coded 6 / 0, code not explained in table
[12] = mouse chronic study, liver, coded 6 / Inf, code not explained in table

## CN1COCN(Cc2cnc(Cl)s2)/C1=N\[N+](=O)[O-] [chemical 296]
Mouse Liver [1]
  CHR_Mouse_Liver_2_PreneoplasticLesion: 6
Rat Liver [2]; [11]
  CHR_Rat_Liver_3_NeoplasticLesion: 0
Rat Liver [3]; [11]
  CHR_Rat_Liver_1_AnyLesion: 6
Mouse Liver [4]; [12]
  CHR_Mouse_Liver_1_AnyLesion: 6
Rat Liver [5]; [11]
  CHR_Rat_Liver_2_PreneoplasticLesion: 0
Mouse Liver [6]
  CHR_Mouse_Liver_3_NeoplasticLesion: 6

## COC(=O)NC(=S)Nc1ccccc1NC(=S)NC(=O)OC [chemical 301]
Mouse Liver [1]
  CHR_Mouse_Liver_2_PreneoplasticLesion: 6
Mouse Liver [4]; [12]
  CHR_Mouse_Liver_1_AnyLesion: 6
Mouse Liver [6]
  CHR_Mouse_Liver_3_NeoplasticLesion: 6

## CCC(CC)Nc1c([N+](=O)[O-])cc(C)c(C)c1[N+](=O)[O-] [r238]
Rat Liver [2]; rat, chronic study
  CHR_Rat_Liver_3_NeoplasticLesion: 0
Rat Liver [3]; rat, chronic study
  CHR_Rat_Liver_1_AnyLesion: 6
PXR (NR1I2) [7]; HepG2
  ATG_PXRE_CIS: 4.959
CYP2B6
  CLZD_CYP2B6_24: 4.988
CYP1A1
  CLZD_CYP1A1_24: 5.24
Rat Liver [5]; rat, chronic study
  CHR_Rat_Liver_2_PreneoplasticLesion: 6
[8]; HepG2
  ATG_PPARg_TRANS: 4.167
PXR (NR1I2) [9]
  ATG_PXR_TRANS: 4.432
PXR (NR1I2) [10]
  NVS_NR_hPXR: 5.143

## CC(C)Nc1nc(Cl)nc(NC(C)C)n1 [r260]
CYP1A2
  CLZD_CYP1A2_24: 5.254
Rat Liver [2]; rat, chronic study
  CHR_Rat_Liver_3_NeoplasticLesion: 0
Rat Liver [3]; rat, chronic study
  CHR_Rat_Liver_1_AnyLesion: 0
PXR (NR1I2) [7]; HepG2
  ATG_PXRE_CIS: 4.569
Mouse Liver [4]; mouse, chronic study
  CHR_Mouse_Liver_1_AnyLesion: 6
CYP2B6
  CLZD_CYP2B6_24: 5.165
CYP1A1
  CLZD_CYP1A1_24: 4.988
Rat Liver [5]; rat, chronic study
  CHR_Rat_Liver_2_PreneoplasticLesion: 0
CYP3A4
  CLZD_CYP3A4_24: 5.248
[8]; HepG2
  ATG_PPARg_TRANS: 4.481
PXR (NR1I2) [9]
  ATG_PXR_TRANS: 4.469

## COc1nc(C)nc(NC(=O)NS(=O)(=O)c2ccccc2CCC(F)(F)F)n1 [r267]
Rat Liver [2]; chronic study, rat liver
  CHR_Rat_Liver_3_NeoplasticLesion: 0
Rat Liver [3]; chronic study, rat liver
  CHR_Rat_Liver_1_AnyLesion: 0
PXR (NR1I2) [7]; HepG2 reporter
  ATG_PXRE_CIS: 4.328
Mouse Liver [4]; chronic study, mouse liver
  CHR_Mouse_Liver_1_AnyLesion: 6
CYP2B6
  CLZD_CYP2B6_24: 5.398
CYP1A1
  CLZD_CYP1A1_24: 5.399
Rat Liver [5]; chronic study, rat liver
  CHR_Rat_Liver_2_PreneoplasticLesion: 0
CYP3A4
  CLZD_CYP3A4_24: 5.396
PXR (NR1I2) [10]
  NVS_NR_hPXR: 4.423

## CCNc1nc(Cl)nc(NCC)n1 [r284]
CYP1A2
  CLZD_CYP1A2_24: 5.016
Rat Liver [2]; chronic study, rat liver
  CHR_Rat_Liver_3_NeoplasticLesion: 6
Rat Liver [3]; chronic study, rat liver
  CHR_Rat_Liver_1_AnyLesion: 6
PXR (NR1I2) [7]; HepG2 reporter
  ATG_PXRE_CIS: 4.456
CYP2B6
  CLZD_CYP2B6_24: 4.983
CYP1A1
  CLZD_CYP1A1_24: 5.018
Rat Liver [5]; chronic study, rat liver
  CHR_Rat_Liver_2_PreneoplasticLesion: 6
[8]; HepG2 reporter
  ATG_PPARg_TRANS: 4.398

## S=C([S-])NCCNC(=S)[S-].[Zn+2] [row 207]
CYP1A2
  CLZD_CYP1A2_24: 5.296
Rat Liver [2]; chronic rat study, liver
  CHR_Rat_Liver_3_NeoplasticLesion: 0
Rat Liver [3]; chronic rat study, liver
  CHR_Rat_Liver_1_AnyLesion: 0
PXR (NR1I2) [7]; HepG2
  ATG_PXRE_CIS: 4.387
CYP1A1
  CLZD_CYP1A1_24: 5.214
Rat Liver [5]; chronic rat study, liver
  CHR_Rat_Liver_2_PreneoplasticLesion: 0
[8]; HepG2
  ATG_PPARg_TRANS: 4.409
PXR (NR1I2) [10]
  NVS_NR_hPXR: 5.59
